Assay results as given in patent US4069317A, “N^2 -Arylsulfonyl-L-argininamides and the pharmaceutically acceptable salts thereof” (Mitsubishi Chemical Industries Ltd., priority 1974, dated 1978).

Assays:
mice = test: acute toxicity (LD50), intraperitoneal administration in mice; format: in vivo; conditions: mice (male, 20 g)
Description: Representative LD50 values, for example, for N^2 -(6,7-dimethoxy-2-naphthylsulfonyl)-L-arginyl-N-butylalanine and N^2 -(4,6-dimethoxy-2-naphthylsulfonyl)-L-arginyl-N-cyclohexylmethylalanine are above 1,500 milligrams per kilogram each.

thrombin = target: T1, thrombin (Bos taurus, UniProt P00735); test: fibrinogen coagulation time; format: biochemical; conditions: bovine fibrinogen, thrombin 5 units/ml, borate saline buffer pH 7.4, 25° C; control coagulation time 50-55 seconds
T1 construct: purchased Mochida Pharmaceutical Co., Ltd
Experimental: The measurement of the fibrinogen coagulation time was conducted as follows:
Immediately after mixing, the reaction mixture was transferred from the ice bath to a bath maintained at 25° C. Coagulation times were taken as the period between the time of transference to the 25° C bath and the time of the first appearance of fibrin threads.
The term "concentration required to prolong the coagulation time by a factor of two" is the concentration of an active ingredient required to prolong the normal coagulation time 50-55 seconds to 100-110 seconds.

Structure (SMILES)	acute toxicity LD50 (mice)	Concentration required to prolong the coagulation time by a factor of two (thrombin) [µM]
CCCCNC(=O)[C@H](CCCNC(=N)N)NS(=O)(=O)c1cccc2c(N(C)C)cccc12 [N^2 -dansyl-N-butyl-L-argininamide, reference compound]	75 milligrams per kilogram	–
CCCCN(C)C(=O)[C@H](CCCNC(=N)N)NS(=O)(=O)c1cccc2c(N(C)C)cccc12 [N^2 -dansyl-N-methyl-N-butyl-L-argininamide, reference compound]	70 milligrams per kilogram	–
CCCCN(C(=O)[C@H](CCCNC(=N)N)NS(=O)(=O)c1ccc2cc(OC)c(OC)cc2c1)[C@@H](C)C(=O)O [Sample 2, N^2-(6,7-dimethoxy-2-naphthylsulfonyl)-L-arginyl-N-butylalanine]	above 1,500 milligrams per kilogram	–
CCCCCN(C(=O)[C@H](CCCNC(=N)N)NS(=O)(=O)c1ccc2cc(OC)c(OC)cc2c1)[C@@H](C)C(=O)O [Sample 4, N^2-(6,7-dimethoxy-2-naphthylsulfonyl)-L-arginyl-N-pentylalanine]	–	2.0
COc1cc2ccc(S(=O)(=O)N[C@@H](CCCNC(=N)N)C(=O)N(Cc3ccccc3)[C@@H](C)C(=O)O)cc2cc1OC [Sample 6, N^2-(6,7-dimethoxy-2-naphthylsulfonyl)-L-arginyl-N-benzylalanine]	–	2.5
COc1cc2ccc(S(=O)(=O)N[C@@H](CCCNC(=N)N)C(=O)N(CCc3ccccc3)[C@@H](C)C(=O)O)cc2cc1OC [Sample 8, N^2-(6,7-dimethoxy-2-naphthylsulfonyl)-L-arginyl-N-phenethylalanine]	–	1.5
COc1ccc2cc(S(=O)(=O)N[C@@H](CCCNC(=N)N)C(=O)N(CC3CCCCC3)[C@@H](C)C(=O)O)cc(OC)c2c1 [Sample 12, N^2-(4,6-dimethoxy-2-naphthylsulfonyl)-L-arginyl-N-cyclohexylmethylalanine]	above 1,500 milligrams per kilogram	4.5
COCCN(C(=O)[C@H](CCCNC(=N)N)NS(=O)(=O)c1ccc2cc(OC)c(OC)cc2c1)[C@@H](C)C(=O)O [Sample 15, N^2-(6,7-dimethoxy-2-naphthylsulfonyl)-L-arginyl-N-(2-methoxyethyl)alanine]	–	5
COc1cc2ccc(S(=O)(=O)N[C@@H](CCCNC(=N)N)C(=O)N(C)[C@@H](Cc3ccccc3)C(=O)O)cc2cc1OC [Sample 18, N^2-(6,7-dimethoxy-2-naphthylsulfonyl)-L-arginyl-N-methylphenylalanine]	–	2
COc1ccc2ccc(S(=O)(=O)N[C@@H](CCCNC(=N)N)C(=O)N(C)[C@@H](Cc3ccccc3)C(=O)O)cc2c1 [Sample 20, N^2-(7-methoxy-2-naphthylsulfonyl)-L-arginyl-N-methylphenylalanine]	–	2.5
CCC[C@H](NC(=O)[C@H](CCCNC(=N)N)NS(=O)(=O)c1ccc2cc(OC)c(OC)cc2c1)C(=O)O [Sample 21, N^2-(6,7-dimethoxy-2-naphthylsulfonyl)-L-arginylnorvaline]	–	15
